Experimental data published in paper PMC7821884, “BRAF inhibition protects against hearing loss in mice” (Science Advances, 2020).

Assays:
[1] = tested on: Tg(brn3c:GFP) zebrafish larvae neuromast HCs; experiment: Zebrafish lateral line neuromast hair cell loss after cisplatin; type: in vivo; conditions: 1 hour pretreatment, 6 hours 400 μM cisplatin; dabrafenib 100 nM
From the text: Lateral line neuromasts of zebrafish are a well-established model for the study of drug protection from cisplatin or aminoglycoside toxicity because their HCs are considered homologous to mammalian HCs and readily accessible to compounds in vivo ([47]–[49]). As in our previous studies, MI1 (medial neuromast 1) and O1-2 (otic line) neuromasts were examined in Tg(brn3c:GFP) zebrafish larvae 5 days after fertilization ([50], [51]). […] Green fluorescent protein (GFP) (brn3c) and otoferlin staining were used to identify neuromast HCs. In fig.
Zebrafish (D. rerio) experimental larvae of either sex were obtained by pair mating of adult fish maintained at Boys Town National Research Hospital. We used zebrafish line Tg(brn3c:GFP) that expresses a membrane-bound GFP in HCs. Fish were maintained at 28.5°C in E3 media [5 mM NaCl, 0.17 mM KCl, 0.33 mM CaCl2, and 0.33 MgSO4 (pH 7.2)] at a density of 50 embryos/larvae per […] petri dish. Experimental animals were used at 5 days post-fertilization and cryo-anesthetized after treatment and before fixation. Average HC counts in our studies were obtained from the following three neuromasts: MI1 (medial neuromast 1) and O1 and O2 (otic line).

SK-N-AS = experiment: Tumor Cell Titer-Glo viability assay, SK-N-AS; type: cell-based, human; conditions: SKN-AS, + 15 μM cisplatin, 48 hours
From the text: (§1) In clinical settings, cisplatin is used to treat several tumor types, including neuroblastoma and lung carcinoma. […] Medium-alone–, cisplatin-alone–, and dabrafenib-alone–treated cells were used as controls, and viability was reported as percent survival compared to medium alone (Fig. 4E).
(§2) Three human neuroblastoma cell lines IMR-32, SH-SY5Y, and, SK-N-AS, as well as three human lung carcinoma cell lines SHP-77 small cell, H1155 non–small cell, and A549 non–small cell, were used to determine the compounds’ effect on cisplatin’s tumor-killing efficacy ([77]–[83]). Cell lines were purchased from the American Type Culture Collection (ATCC), and cell culture was conducted according to ATCC specifications. Neuroblastoma cell lines IMR-32 and SH-SY5Y are maintained in Dulbecco’s modified Eagle’s medium (DMEM) 1× with glucose (4.5 g/liter), L-glutamine, and sodium pyruvate (10-013-CV, Corning) with 10% fetal bovine serum (FBS) (35011132, Corning) and ampicillin (50 μg/ml; A5354-10ML, Sigma-Aldrich) added. The SK-N-AS cell line is maintained in DMEM 1× with D-glucose (4.5 g/liter), L-glutamine, and 25 mM Hepes (12430-054, Gibco) with 10% FBS, 0.1 mM nonessential amino acids, and ampicillin (50 μg/ml) added. A549 cells are maintained in F-12K medium with L-glutamine (30-2004, ATCC) with 10% FBS and ampicillin (50 μg/ml) added. […]

[2] = tested on: human neuroblastoma and lung carcinoma cell lines; experiment: Tumor Cell Titer-Glo viability assay, interference with cisplatin tumor killing (six cell lines); type: cell-based; conditions: compound at 3× protective IC50 (dabrafenib 35 μM, AZD5438 […]) + 15 μM cisplatin (200 μM for A549), 48 hours
From the text: as §1, §2

P42 FVB mice [3] = experiment: Noise-induced hearing loss in adult mice (ABR, DPOAE, Ctbp2 puncta, pERK); type: in vivo, mouse
Method: Noise injury cannot always be predicted, and pretreatment is often not an option.
(§3) Compounds were dissolved in a mixture of 10% DMSO, 5% Tween 80 (P1754, Sigma-Aldrich), 40% PEG-E-300 (91462-1KG, Sigma-Aldrich), and 45% 0.9% saline.
(§4) ABR in mice was measured for left ears as described previously with minor modifications ([13], [34]). In brief, ABR waveforms were recorded in a sound booth (Industrial Acoustic Company) by using subdermal needles positioned in the skull, below the pinna, and at the base of the tail, and the responses were fed into a low-impedance Medusa digital biological amplifier system (RA4L; TDT; 20-dB gain). At each frequency, the stimulus intensity was reduced from 90 to 0 dB in 10-dB steps to determine the threshold decibel SPL when the electrical response was just above the noise floor. ABR waveforms were averaged in response to 500 tone bursts. The recorded signals were filtered by a band-pass filter from 300 Hz to 3 kHz. Pretreatment ABR recordings of adult FVB mice (aged 6 weeks) were acquired 1 week before all treatments, and posttreatment ABR measurements were recorded 21 days after cisplatin treatment or 14 days after noise exposure. ABR threshold was determined by the presence of any of three or more of the five waveform peaks. […] All thresholds and shifts were determined independently by two experimenters for each mouse. Individual ABR wave 1 amplitudes were measured as the difference between the positive peak and the following negative trough.
Mice were placed in individual cages in a custom-made acrylic chamber. The sound stimulus was produced by System RZ6 (TDT) equipment and amplified using a 75-A power amplifier (Crown). Sound was delivered to the acrylic chamber via a speaker horn (JBL). The SPL was calibrated with a 1/4-inch free-field microphone (PCB). Before experimental noise exposure, four quadrants of the cage inside the chamber were sampled with the 1/4-inch microphone to ensure that the SPL varied by <0.5 dB across the measured positions. Adult mice were then exposed to 2 hours of octave band noise (8 to 16 kHz) at 100 dB.
Organs of Corti were costained with anti-Ctbp2 and anti–myosin VI antibodies. Confocal imaging was performed using a Zeiss 700 scanning confocal microscope with a 63× objective. Visualization and projections were performed using ZEN 2009 or ZEN 2012 software (Zeiss). Ctbp2 puncta were visualized and counted on the reconstructed three-dimensional images by using the ZEN 2009 or ZEN 2012 three-dimensional construct function as previously reported ([54]). […] Images were acquired around 16-kHz cochlear regions, and each image included 12 to 18 IHCs that were quantified as total number of Ctbp2 puncta divided by total number of IHCs per image.

P42 FVB mice [4] = experiment: Cisplatin-induced hearing loss in adult mice (ABR, OHC counts, pERK); conditions: 75 mg/kg oral gavage, cisplatin 30 mg/kg i.p.
Method: As described in Fig. 4A, baseline auditory brainstem response (ABR) thresholds for P42 FVB mice were established 1 week before experimental procedures. […] Animals were allowed 21 days after cisplatin injection to recover, and final ABR thresholds were recorded.
Ten milligrams of cisplatin (479306, Sigma-Aldrich) powder was dissolved in 10 ml of sterile saline (0.9% NaCl) at 37°C for 40 to 60 min. Cisplatin was administered to FVB mice at 30 mg/kg via intraperitoneal injection. One day before cisplatin injection, mice received 1 ml of saline by subcutaneous injection. To ameliorate dehydration after cisplatin injection, 1 ml of warm saline was injected twice per day for at least 7 days or until body weight started to recover. The cages of cisplatin-treated mice were placed on the heating pad for at least 7 days or until body weight began to recover. Fresh mush food was daily given for at least 7 days.
as §3, §4
Cochleae from adult mice were prepared and examined as described previously ([85], [86]). All images were acquired with a confocal microscope (LSM 700 or 710, Zeiss). Samples were stained with phalloidin (A12379 or A12380, Invitrogen) or with antibodies for other markers. The following primary antibodies were used: anti–myosin VI (1:400; 25-6791; Proteus Bioscience), anti–myosin VIIa ([…];138-1-s, Developmental Studies Hybridoma Bank), anti-Tuj1 (1:250; 801201, BioLegend), anti-pERK (1:400; 9101S, Cell Signaling Technology), or anti-Ctbp2 (1:500; 612044, BD Transduction). Anti-rabbit Alexa Fluor 488 (1:400; A11034) and anti-mouse Alexa Fluor 647 (1:400; A31571) secondary antibodies were purchased from Invitrogen. ProLong gold antifade reagent with 4′,6-diamidino-2-phenylindole (P36941, Invitrogen) was used to counterstain nuclei.

For `Cc1ncc(-c2ccnc(Nc3ccc(S(C)(=O)=O)cc3)n2)n1C(C)C` [AZD5438], the “protection from cisplatin-induced neuromast HC loss” value [1] was “confer protection”, the “interference with cisplatin killing ability” value (SK-N-AS) was “interfered with cisplatin killing ability” and the “effect on cisplatin-induced tumor cell death” value [2] was “did not interfere with or enhanced”. The “reduction of ABR threshold shifts, treatment after noise” value (P42 FVB mice [3]; 35 mg/kg twice daily oral gavage, post-noise) was “did not significantly reduce”, the “protection against noise-induced hearing loss, pretreatment” value (P42 FVB mice [3]; 75 mg/kg oral gavage pretreatment) was “protected” and the “protection against cisplatin-induced hearing loss, pretreatment” value (P42 FVB mice [4]) was “protected”.
